Test results from patent US9221822B2, “Thiazolopyrimidine modulators as immunosuppressive agents” (Katholieke Universiteit Leuven, K.U.Leuven R&D, priority 2009, dated 2015).

System: Human peripheral blood mononuclear cells (PBMCs) as Responder cells, RPMI 1788 Stimulator cells
Assay: Mixed Lymphocyte Reaction (MLR) test
Type: cell-based
Settings: 6 days coculture, 3H-thymidine incorporation
Procedure: Human peripheral blood mononuclear cells (PBMCs) were isolated from buffy coats, obtained from healthy blood donors by Ficoll (Lymphoprep, Axis-Shield PoC AS, Oslo, Norway) density-gradient centrifugation. The cells at the Ficoll-plasma interface were washed three times and used as “Responder” cells. RPMI 1788 (ATCC, N^o CCL-156) cells were treated with mitomycin C (Kyowa, Nycomed, Brussel, Belgium) and used as “Stimulator” cells. Responder cells (0.12×10^6), Stimulator cells (0.045×10^6) and compounds (in different concentrations) were cocultured for 6 days in RPMI 1640 medium (BioWhittaker, Lonza, Belgium) supplemented with 10% fetal calf serum, 100 U/ml Geneticin (Gibco, LifeTechnologies, UK). Cells were cultured in triplicate in flat-bottomed 96-well microtiter tissue culture plates (TTP, Switzerland). After 5 days, cells were pulsed with 1 μCi of methyl-^3H thymidine (MP Biomedicals, USA), harvested 18 h later on glass filter paper and counted. Proliferation values were expressed as counts per minute (cpm), and converted to % inhibition with respect to a blank MLR test (identical but without added compound). […]

[1] = Homo sapiens, RPMI-1788, lowest concentration giving 50% inhibition of the MLR
[2] = lowest concentration giving 50% inhibition of the MLR

SMILES | IC50 [1] | IC50 [2]
CC(C)(Oc1ccc(Cl)cc1)C(=O)N1CCN(c2nc(N)nc3sc(-c4ccc(F)cc4)nc23)CC1 [Example 237, 1-(4-(5-amino-2-(4-fluorophenyl)thiazolo[5,4-d]pyrimidin-7-yl)piperazin-1-yl)-2-(4-chlorophenoxy)-2-methylpropan-1-one] | > 10000 nM | 
Nc1nc(N2CCOCC2)c2nc(Cc3ccc(F)cc3)sc2n1 [Example 34, 2-(4-fluorobenzyl)-7-morpholino-thiazolo[5,4-d]pyrimidin-5-amine] | > 10000 nM | 
COc1ccc(OCC(=O)N2CCN(c3nc(N)nc4sc(CCc5ccc(OC)c(OC)c5)nc34)CC2)cc1 [Example 257, 1-(4-(5-amino-2-(3,4-dimethoxyphenethyl)thiazolo[5,4-d]pyrimidin-7-yl)piperazin-1-yl)-2-(4-methoxyphenoxy)ethanone] | 1140 nM | 
Nc1nc(N2CCN(C(=O)c3ccc(Cl)cc3)CC2)c2nc(-c3ccc(F)cc3)[nH]c2n1 [Example 404, (4-(2-amino-8-(4-fluorophenyl)-9H-purin-6-yl)piperazin-1-yl)(4-chlorophenyl)methanone] | > 10000 nM | 
Nc1nc(N2CCN(C(=O)COc3ccccc3)CC2)c2cc(-c3ccccc3)sc2n1 [Example 332, 1-(4-(2-amino-6-phenylthieno[2,3-d]pyrimidin-4-yl)piperazin-1-yl)-2-phenoxyethanone] | 780 nM | 
Nc1nc(NCc2ccccc2)c2cc(-c3ccc(F)cc3)sc2n1 [Example 327, 2-amino-4-N-benzylamino-6-(4-fluorophenyl)-thieno[2,3-d]pyrimidine] |  | 6800 nM
COc1ccc(OCC(=O)N2CCN(c3nc(N)nc4sc(-c5ccc(C)cc5)nc34)CC2)cc1 [Example 294, 1-(4-(5-amino-2-p-tolylthiazolo[5,4-d]pyrimidin-7-yl)piperazin-1-yl)-2-(4-methoxyphenoxy)ethanone] | 750 nM | 
O=C(COc1ccc(Cl)cc1)N1CCN(c2ncnc3sc(-c4ccc(F)cc4)nc23)CC1 [Example 301, 1-(4-(2-(4-fluorophenyl)thiazolo[5,4-d]pyrimidin-7-yl)piperazin-1-yl)-2-(4-chlorophenoxy)ethanone] | 670 nM | 
Nc1nc(N2CCN(C(=O)COc3ccc(Cl)cc3)CC2)c2nc(C3(c4ccccc4)CC3)sc2n1 [Example 114, 5-amino-7-[4-(4-chlorophenoxyacetyl)piperazin-1-yl]-2-(1-phenylcyclopropyl)thiazolo[5,4-d]pyrimidine] | 1560 nM | 
Nc1nc(N2CCC(C(=O)c3ccccc3)CC2)c2nc(CCc3ccc(F)cc3)sc2n1 [Example 148, 5-amino-2-[2-(4-fluorophenyl)ethyl]-7-(4-benzoylpiperidine-1-yl)-thiazolo[5,4-d]pyrimidine] | 2610 nM | 
Nc1nc(N2CCN(C(=O)COc3ccc(Cl)cc3)CC2)c2cc(-c3ccccc3)sc2n1 [Example 329, 1-(4-(2-amino-6-phenylthieno[2,3-d]pyrimidin-4-yl)piperazin-1-yl)-2-(4-chlorophenoxy)ethanone] | 330 nM | 
Nc1nc(N2CCN(C(=O)Cc3cccs3)CC2)c2nc(-c3ccc(F)cc3)[nH]c2n1 [Example 403, 1-(4-(2-amino-8-(4-fluorophenyl)-9H-purin-6-yl)piperazin-1-yl)-2-(thiophen-2-yl)ethanone] | 7080 nM | 
Cc1cccc(NC(=O)N2CCN(c3nc(N)nc4oc(CCc5ccc(F)cc5)nc34)CC2)c1 [Example 196, 5-amino-2-[2-(4-fluorophenyl)ethyl]-7-(4-m-tolylcarbamoylpiperazin-1-yl)-oxazolo[5,4-d]pyrimidine] | 3970 nM | 
Cc1cc(Cl)ccc1OCC(=O)N1CCN(c2nc(N)nc3sc(-c4ccc(F)cc4)nc23)CC1 [Example 213, 1-(4-(5-amino-2-(4-fluorophenyl)thiazolo[5,4-d]pyrimidin-7-yl)piperazin-1-yl)-2-(4-chloro-2-methylphenoxy)ethanone] | 219 nM | 
Cc1cccc(NC(=O)N2CCN(c3nc(N)nc4sc(-c5ccccc5)nc34)CC2)c1 [Example 220, 4-(5-amino-2-phenylthiazolo[5,4-d]pyrimidin-7-yl)-N-m-tolylpiperazine-1-carboxamide] | 170 nM | 
Nc1nc(N2CCN(CCOc3ccccc3)CC2)c2nc(CCc3ccc(F)cc3)oc2n1 [Example 197, 5-amino-2-[2-(4-fluorophenyl)ethyl]-7-(4-(2-phenoxyethyl)piperazin-1-yl)-oxazolo[5,4-d]pyrimidine] | 1950 nM | 
Nc1nc(N2CCN(C(=O)COc3cccc(Cl)c3)CC2)c2nc(CCc3ccc(F)cc3)sc2n1 [Example 228, 1-(4-(5-amino-2-(4-fluorophenethyl)thiazolo[5,4-d]pyrimidin-7-yl)piperazin-1-yl)-2-(3-chlorophenoxy)ethanone] | 1720 nM | 

SMILES | IC50 [1] | IC50 [2]
Nc1nc(N2CCN(C(=O)COc3ccc(Cl)cc3)CC2)c2nc(Cc3ccc(F)cc3)sc2n1 [Example 46, 1-(4-(5-amino-2-(4-fluorobenzyl)thiazolo[5,4-d]pyrimidin-7-yl)piperazin-1-yl)-2-(4-chlorophenoxy)ethanone] | 700 nM | 
COc1ccc(OCC(=O)N2CCN(c3nc(N)nc4sc(-c5ccc(Cl)cc5)nc34)CC2)cc1 [Example 280, 1-(4-(5-amino-2-(4-chlorophenyl)thiazolo[5,4-d]pyrimidin-7-yl)piperazin-1-yl)-2-(4-methoxyphenoxy)ethanone] |  | > 10000 nM
Nc1nc(N2CCN(C(=O)COc3ccc(OC(F)(F)F)cc3)CC2)c2nc(CCc3ccc(F)cc3)sc2n1 [Example 226, 1-(4-(5-amino-2-(4-fluorophenethyl)thiazolo[5,4-d]pyrimidin-7-yl)piperazin-1-yl)-2-(4-(trifluoromethoxy)phenoxy)ethanone] | 7120 nM | 
Nc1nc(N2CCN(C(=O)COc3ccc(Cl)cc3)CC2)c2nc(CCc3ccc(Br)cc3)sc2n1 [Example 299, 1-(4-(5-amino-2-(4-bromophenethyl)thiazolo[5,4-d]pyrimidin-7-yl)piperazin-1-yl)-2-(4-chlorophenoxy)ethanone] | 3110 nM | 
Nc1nc(N2CCN(c3nccs3)CC2)c2nc(CCc3ccc(F)cc3)sc2n1 [Example 140, 5-amino-2-[2-(4-fluorophenyl)ethyl]-7-(4-thiazol-2-yl-piperazine-1-yl)-thiazolo[5,4-d]pyrimidine] | 8820 nM | 
Nc1nc(N2CCC(C(=O)c3ccccc3)CC2)c2cc(-c3ccc(F)cc3)sc2n1 [Example 348, (1-(2-amino-6-(4-fluorophenyl)thieno[2,3-d]pyrimidin-4-yl)piperidin-4-yl)(phenyl)methanone] | 8270 nM | 
CN(C(=O)CN1CCN(c2nc(N)nc3[nH]c(-c4ccc(F)cc4)nc23)CC1)c1ccccc1 [Example 413, 2-(4-(2-amino-8-(4-fluorophenyl)-9H-purin-6-yl)piperazin-1-yl)-N-methyl-N-phenylacetamide] | > 10000 nM | 
Nc1nc(N2CCN(c3ccc(F)cc3)CC2)c2nc(-c3ccc(F)cc3)[nH]c2n1 [Example 415, 8-(4-fluorophenyl)-6-(4-(4-fluorophenyl)piperazin-1-yl)-9H-purin-2-amine] | 4160 nM | 
CCCc1nc2c(N3CCN(C(=O)COc4ccc(Cl)cc4)CC3)nc(N)nc2[nH]1 [Example 397, 1-(4-(2-amino-8-propyl-9H-purin-6-yl)piperazin-1-yl)-2-(4-chlorophenoxy)ethanone] | 940 nM | 
Cc1cccc(NC(=O)N2CCCN(c3nc(N)nc4[nH]c(-c5ccc(F)cc5)nc34)CC2)c1 [Example 422, 4-(2-amino-8-(4-fluorophenyl)-9H-purin-6-yl)-N-m-tolyl-1,4-diazepane-1-carboxamide] | 1180 nM | 
Nc1nc(N2CCN(c3nccs3)CC2)c2nc(-c3ccc(F)cc3)[nH]c2n1 [Example 409, 8-(4-fluorophenyl)-6-(4-(thiazol-2-yl)piperazin-1-yl)-9H-purin-2-amine] | 7470 nM | 
Nc1nc(N2CCN(C(=O)COc3ccc(Cl)cc3)CC2)c2nc(CCCc3ccc(F)cc3)sc2n1 [Example 290, 1-(4-(5-amino-2-(3-(4-fluorophenyl)propyl)thiazolo[5,4-d]pyrimidin-7-yl)piperazin-1-yl)-2-(4-chlorophenoxy)ethanone] | 960 nM | 
Nc1nc(N2CCN(C(=O)COc3ccc(Br)cc3)CC2)c2nc(-c3ccc(F)cc3)sc2n1 [Example 128, 5-amino-2-(4-fluorophenyl)-7-(4-[2-(4-bromophenoxy)acetyl]-piperazin-1-yl)-thiazolo[5,4-d]pyrimidine] |  | 380 nM
Nc1nc(N2CCN(C(=O)COc3ccccc3)CC2)c2nc(CCc3ccc(F)cc3)sc2n1 [Example 134, 5-amino-2-[2-(4-fluorophenyl)ethyl]-7-(4-[2-phenoxyacetyl]piperazin-1-yl)-thiazolo[5,4-d]pyrimidine] | 4920 nM | 
Nc1nc(N2CCN(C(=O)COc3ccc(Cl)cc3)CC2)c2nc(C3CC3)[nH]c2n1 [Example 398, 1-(4-(2-amino-8-cyclopropyl-9H-purin-6-yl)piperazin-1-yl)-2-(4-chlorophenoxy)ethanone] | 430 nM | 
Cc1ccc(CCc2nc3c(N4CCN(C(=O)COc5ccc(Cl)cc5)CC4)nc(N)nc3s2)cc1 [Example 260, 1-(4-(5-amino-2-(4-methylphenethyl)thiazolo[5,4-d]pyrimidin-7-yl)piperazin-1-yl)-2-(4-chlorophenoxy)ethanone] | 820 nM | 
Nc1nc(N2CCN(C(=O)CCc3ccccc3)CC2)c2cc(-c3ccc(F)cc3)sc2n1 [Example 343, 1-(4-(2-amino-6-(4-fluorophenyl)thieno[2,3-d]pyrimidin-4-yl)piperazin-1-yl)-3-phenylpropan-1-one] | 6990 nM | 
